Laboratory results reported in US20250092065A1, “2-(INDAZOL-5-YL)-6-(PIPERIDIN-4-YL)-1,7-NAPHTHYRIDINE DERIVATIVES AND RELATED COMPOUNDS AS MODULATORS FOR SPLICING NUCLEIC ACIDS AND FOR THE TREATMENT OF PROLIFERATIVE DISEASES” (REMIX THERAPEUTICS INC., priority 2022, published 2025).
Where two headings read alike, the source gives them in different places.

Legend:
SMN2 mRNA = experiment: RT-qPCR splicing assay, SMN2 mRNA; format: cell-based, human; settings: canonical junction qPCR panel, Table 4, read-out: SMN2 IC50 (decrease in CJ mRNA levels)
Method in brief: (§1)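 Canonical and alternative-exon junction isoforms were quantified by RT-qPCR in cell lysates, with ΔCt against a housekeeper (GAPDH/GUSB/PPIA), then ΔΔCt vs DMSO, converted to 2^(−ΔΔCt) and percent response. K562 or A673 cells were exposed for 24 h to 11 concentrations (3-fold, top final 10 uM).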

MYB mRNA = experiment: RT-qPCR splicing assay, MYB mRNA canonical (CJ) and alternative (AJ) junction; format: cell-based, human; settings: for AC50: MYB alternative junction mRNA, read-out: MYB AJ (increase in AJ mRNA, AC50)
Method in brief: as §1

HTT mRNA = experiment: RT-qPCR splicing assay, HTT mRNA canonical (CJ) and alternative (AJ) junction; format: cell-based, human; settings: for AC50: HTT alternative junction mRNA, read-out: HTT AJ (increase in AJ mRNA, AC50)
Method in brief: as §1

MYB = experiment: HiBiT protein abundance assay, MYB (K562 HiBiT knock-in); format: cell-based, human; settings: HiBiT knock-in K562 cells, 24 hours, top dose 10 μM
Method in brief: (§2)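 Endogenously HiBiT-tagged K562 lines were treated for 24 h at 37 °C with 10-point 3-fold dilutions (top 10 μM final, DMSO ≤0.25%). Lytic LgBiT complementation luminescence was normalized between unmodified K562 (PC) and DMSO-treated tagged cells (NC); IC50 was interpolated at 50% from a four-parameter logistic fit.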

HTT = experiment: HiBiT protein abundance assay, HTT (K562 HiBiT knock-in); format: cell-based, human; settings: HiBiT knock-in K562 cells, 24 hours, top dose 10 μM
Method in brief: as §2

Target C = experiment: HiBiT protein abundance assay, Target C (K562 HiBiT knock-in); format: cell-based, human; settings: HiBiT knock-in K562 cells, 24 hours, top dose 10 μM
Method in brief: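 K562 HiBiT knock-in cells (10000/well) were treated 24 h at 37° C with a 10-point 3-fold dilution series (top 10 μM final, ≤0.25% DMSO). HiBiT luminescence was read after lytic LgBiT detection. Percent response used unmodified K562 and DMSO-treated knock-in controls, and IC50 came from a four-parameter fit at 50% of untreated.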

K562 cells = experiment: Cell Titer Glo 2.0 cell viability (toxicity) assay, K562; settings: 500 cells/well, 72 hours
Procedure: Compounds described herein were screened for toxicity in K562 (human chronic myelogenous leukemia) and SH-SY5Y (human neuroblastoma) cells using a Cell Titer Glo 2.0 assay.
Cells were plated at 500 cells/well (K562 cells) in 45 μL of IMDM supplemented with 10% FBS in a 384-well opaque plate. Wells containing only medium were used as a blank control. Test compounds (e.g., compounds of Formula (I) or (II)) were first serially diluted in DMSO then diluted 1:100 with EIDM+10% FBS. The final concentration of DMSO was 0.1% in each well. The cells were incubated for 72 hours at 37° C. and 5% CO2 before assaying with Cell Titer Glo 2.0 reagent.

[1] = Homo sapiens, MYB canonical junction mRNA, RT-qPCR, read-out: MYB CJ (decrease in CJ mRNA levels, IC50)
[2] = Homo sapiens, canonical junction qPCR panel, Table 4, read-out: MYB IC50 (decrease in CJ mRNA levels)
[3] = Homo sapiens, HTT canonical junction mRNA, RT-qPCR, read-out: HTT CJ (decrease in CJ mRNA levels, IC50)
[4] = Homo sapiens, canonical junction qPCR panel, Table 4, read-out: HTT IC50 (decrease in CJ mRNA levels)

SMILES	IC50 (SMN2 mRNA; Homo sapiens) [µM]	IC50 (MYB mRNA; [1]) [µM]	IC50 (MYB mRNA; [2]) [µM]	IC50 (HTT mRNA; [3]) [µM]	IC50 (HTT mRNA; [4]) [µM]	IC50 (MYB) [µM]	IC50 (HTT) [µM]	IC50 (Target C) [µM]	IC50 (SMN2 mRNA) [µM]	IC50 (MYB mRNA; MYB canonical junction mRNA, RT-qPCR, read-out: MYB CJ (decrease in CJ mRNA levels, IC50)) [µM]	IC50 (MYB mRNA; canonical junction qPCR panel, Table 4, read-out: MYB IC50 (decrease in CJ mRNA levels)) [µM]	IC50 (HTT mRNA; HTT canonical junction mRNA, RT-qPCR, read-out: HTT CJ (decrease in CJ mRNA levels, IC50)) [µM]	IC50 (HTT mRNA; canonical junction qPCR panel, Table 4, read-out: HTT IC50 (decrease in CJ mRNA levels)) [µM]	AC50 (MYB mRNA; Homo sapiens, RT-qPCR) [µM]	AC50 (HTT mRNA; Homo sapiens, RT-qPCR) [µM]	Effect of Exemplary Compounds on Cell Viability, K562 (K562 cells)	AC50 (MYB mRNA; RT-qPCR) [µM]	AC50 (HTT mRNA; RT-qPCR) [µM]
Cc1c(O)c(-c2ccc3nc(N4CCC(NC(C)(C)C)C4)ccc3n2)cc2cn(C)nc12 (stereo not drawn) [Compound 191]						< 0.1	< 0.1	< 0.1	> 10	> 10	> 10	> 10	> 10			A (A represents <100 nM)	> 10	> 10
Cn1cc2cc(-c3ccc4nc(C5CCNCC5)ccc4n3)c(F)cc2n1 [Compound 193]	1 to 10	1 to 10	1 to 10	1 to 10	1 to 10	1 to 10	1 to 10	1 to 10						1 to 10	1 to 10	C (C represents 1000-9999 nM)		
Cn1cc2cc(-c3ccc4nc(N5CC[C@@H](NCC6CC6)C5)ccc4n3)c(O)cc2n1 [Compound 195]	< 0.1	0.1 to 1	0.1 to 1	0.1 to 1	0.1 to 1	< 0.1	0.1 to 1	0.1 to 1						< 0.1	0.1 to 1	B (B represents 100-1000 nM)		
Cn1cc2cc(-c3ccc4nc(N5CC[C@@H](NC6CC6)C5)ccc4n3)c(O)cc2n1 [Compound 198]	< 0.1	< 0.1	< 0.1	< 0.1	< 0.1	< 0.1	< 0.1	< 0.1						< 0.1	< 0.1	B (B represents 100-1000 nM)		
Cn1cc2nc(-c3ccc4nc(C5CCNCC5)ccc4n3)ccc2n1 [Compound 199]	0.1 to 1	0.1 to 1	0.1 to 1	0.1 to 1	0.1 to 1	0.1 to 1	0.1 to 1	0.1 to 1						0.1 to 1	0.1 to 1	B (B represents 100-1000 nM)		
Cc1cn2cc(-c3ccc4nc(N5CCC(NC(C)(C)C)C5)ccc4n3)cc(C)c2n1 (stereo not drawn) [Compound 201]	< 0.1	0.1 to 1	0.1 to 1	0.1 to 1	0.1 to 1	0.1 to 1	< 0.1	0.1 to 1						0.1 to 1	0.1 to 1	B (B represents 100-1000 nM)		
Cn1cc2cc(-c3ccc4nc(N5CCC(NC(C)(C)C)C5)ccc4n3)c(O)c(F)c2n1 (stereo not drawn) [Compound 202]	< 0.1	< 0.1	< 0.1	< 0.1	< 0.1	< 0.1	< 0.1	< 0.1						< 0.1	< 0.1	A (A represents <100 nM)		
Cc1cn2nc(-c3ccc4nc(N5CCC(NC(C)(C)C)C5)ccc4n3)c(O)c2c(C)n1 (stereo not drawn) [Compound 203]	< 0.1	0.1 to 1	0.1 to 1	< 0.1	< 0.1	< 0.1	< 0.1	< 0.1						0.1 to 1	< 0.1	B (B represents 100-1000 nM)		
Cn1cc2cc(-c3ccc4nc(C5CCNCC5)ccc4n3)c(C#N)cc2n1 [Compound 204]	0.1 to 1	1 to 10	1 to 10	1 to 10	1 to 10	1 to 10	1 to 10	1 to 10						1 to 10	1 to 10	D (D represents greater than 10 μM in K562 cells)		
Cn1cc2nc(-c3ccc4nc(N5CCC(NC(C)(C)C)C5)ccc4n3)c(F)cc2n1 (stereo not drawn) [Compound 207]	1 to 10	1 to 10	1 to 10	1 to 10	1 to 10	1 to 10	1 to 10	1 to 10						1 to 10	1 to 10	C (C represents 1000-9999 nM)		
Cc1nc2cc(O)c(-c3ccc4nc(N5CC[C@H](NC(C)(C)C)C5)ccc4n3)cc2o1 [Compound 209]	< 0.1	< 0.1	< 0.1	< 0.1	< 0.1	1 to 10	< 0.1	< 0.1						< 0.1	< 0.1	C (C represents 1000-9999 nM)		

More lines, main results first:

IC50 (SMN2 mRNA; Homo sapiens) [µM]	IC50 (MYB mRNA; [1]) [µM]	IC50 (MYB mRNA; [2]) [µM]	IC50 (HTT mRNA; [3]) [µM]	IC50 (HTT mRNA; [4]) [µM]	IC50 (MYB) [µM]	IC50 (HTT) [µM]	IC50 (Target C) [µM]	IC50 (SMN2 mRNA) [µM]	IC50 (MYB mRNA; MYB canonical junction mRNA, RT-qPCR, read-out: MYB CJ (decrease in CJ mRNA levels, IC50)) [µM]	IC50 (MYB mRNA; canonical junction qPCR panel, Table 4, read-out: MYB IC50 (decrease in CJ mRNA levels)) [µM]	IC50 (HTT mRNA; HTT canonical junction mRNA, RT-qPCR, read-out: HTT CJ (decrease in CJ mRNA levels, IC50)) [µM]	IC50 (HTT mRNA; canonical junction qPCR panel, Table 4, read-out: HTT IC50 (decrease in CJ mRNA levels)) [µM]	SMILES	AC50 (MYB mRNA; Homo sapiens, RT-qPCR) [µM]	AC50 (HTT mRNA; Homo sapiens, RT-qPCR) [µM]	Effect of Exemplary Compounds on Cell Viability, K562 (K562 cells)	AC50 (MYB mRNA; RT-qPCR) [µM]	AC50 (HTT mRNA; RT-qPCR) [µM]
< 0.1	> 10	> 10	> 10	> 10	> 10	> 10	> 10						Cc1nc2cc(O)c(-c3ccc4nc(N5CCC(NC(C)(C)C)C5)ccc4n3)cc2s1 (stereo not drawn) [Compound 190]	> 10	> 10	C (C represents 1000-9999 nM)		
1 to 10	> 10	> 10	> 10	> 10	> 10	> 10	> 10						Cn1cc2cc(-c3ccc4nc(C5CCNCC5)ccc4n3)c(C(F)F)cc2n1 [Compound 196]	> 10	> 10	D (D represents greater than 10 μM in K562 cells)		
< 0.1	0.1 to 1	0.1 to 1	< 0.1	< 0.1	0.1 to 1	< 0.1	0.1 to 1						Cn1cc2cc(-c3ccc4nc(N5CC[C@H](NC6CC6)C5)ccc4n3)c(O)cc2n1 [Compound 197]	0.1 to 1	< 0.1	B (B represents 100-1000 nM)		
1 to 10	1 to 10	1 to 10	1 to 10	1 to 10	1 to 10	1 to 10	1 to 10						Cn1cc2cc(-c3ccc4nc(C5CCNCC5)ccc4n3)ncc2n1 [Compound 200]	1 to 10	1 to 10	C (C represents 1000-9999 nM)		
1 to 10	1 to 10	1 to 10	1 to 10	1 to 10	1 to 10	1 to 10	1 to 10						Cn1cc2nc(-c3ccc4nc(C5CCNCC5)ccc4n3)c(F)cc2n1 [Compound 205]	1 to 10	1 to 10	C (C represents 1000-9999 nM)		
1 to 10	1 to 10	1 to 10	1 to 10	1 to 10	1 to 10	1 to 10	1 to 10						Cc1cn2cc(-c3ccc4nc(N5CCC(NC(C)(C)C)C5)ccc4n3)nc(C)c2n1 (stereo not drawn) [Compound 206]	1 to 10	1 to 10	C (C represents 1000-9999 nM)		
1 to 10	> 10	> 10	> 10	> 10	> 10	1 to 10	> 10						Cc1nc(-c2ccc3nc(N4CCC(NC(C)(C)C)C4)ccc3n2)cc2cn(C)nc12 (stereo not drawn) [Compound 208]	1 to 10	> 10	D (D represents greater than 10 μM in K562 cells)		
